{"source": "patent US11096979B2", "about": "“Pharmaceutical composition for preventing or treating liver diseases, containing licorice extract containing glycyrrhizin and liquiritin” (NOVAREX CO., LTD., priority 2016, dated 2021)", "key": {"[1]": {"test_system": "cultured hepatocytes (HepG2)", "assay": "Cell viability of HepG2 cells treated with single components or t-BHP", "conditions": "HepG2, t-BHP alone, FIG. 6"}, "[2]": {"test_system": "HepG2 cells with hepatotoxicity induced by t-BHP", "assay": "Inhibition of t-BHP-induced hepatotoxicity in cultured hepatocytes", "conditions": "HepG2, FIG. 6"}, "[3]": {"test_system": "iNOS, COX2", "assay": "iNOS and COX2 mRNA (PCR) in LPS-treated BV2 cells", "type": "cell-based", "conditions": "BV2 cells treated with LPS, FIGS. 3A-3C", "procedure": "(§1) In order to investigate the molecular biological mechanism of the anti-inflammatory effect of the single components derived from the licorice extract, the following test was conducted. BV2 cells were treated with an inflammation inducer LPS, after which the extent of inhibition of the increase in proinflammatory cytokines, iNOS ([…]), COX2 (cyclooxygenase-2), etc. by three components (glycyrrhizin, liquiritin and liquiritigenin) was measured based on changes in mRNA using a PCR technique."}, "[4]": {"test_system": "NO production by LPS in BV2 cells", "assay": "Inhibition of NO production by LPS in BV2 cells", "type": "cell-based", "conditions": "BV2 cells, 10, 20 and 50 μM, after 24 hr, FIG. 2", "procedure": "In order to evaluate the anti-inflammatory effects of single components derived from the licorice extract, BV2 cells were treated with glycyrrhizin, liquiritin and liquiritigenin at concentrations of 10, 20 and 50 μM, after which the inhibition of NO production by LPS (Lipopolysaccharide) was measured after 24 hr."}, "[5]": {"test_system": "TNF-α, IL-1β, IL-6", "assay": "Inflammation-related cytokine mRNA (PCR) in LPS-treated BV2 cells", "type": "cell-based", "conditions": "BV2 cells treated with LPS, FIGS. 4A-4C", "procedure": "as §1"}, "[6]": {"test_system": "cultured hepatocytes (HepG2)", "conditions": "human, 100 μM"}}, "data": [{"molecule": "CC(C)(C)OO", "note": "[t-BHP, t-butyl hydroperoxide]", "values": [{"measurement": "cell viability upon treatment with t-BHP", "setting": "[1]", "value": "about 30%"}]}, {"molecule": "O=C1C[C@@H](c2ccc(O)cc2)Oc2cc(O)ccc21", "note": "[liquiritigenin]", "values": [{"measurement": "inhibition of hepatotoxicity induced by t-BHP", "setting": "[2]", "value": "hepatotoxicity inhibition effects increased with the treatment concentration thereof"}, {"measurement": "expression of iNOS and COX2 (mRNA)", "setting": "[3]", "value": "also exhibited reduction effects"}, {"measurement": "inhibition of NO production by LPS", "setting": "[4]", "value": "greatest efficacy"}]}, {"molecule": "CC1(C)[C@@H](O[C@H]2O[C@H](C(=O)O)[C@@H](O)[C@H](O)[C@H]2O[C@@H]2O[C@H](C(=O)O)[C@@H](O)[C@H](O)[C@H]2O)CC[C@]2(C)[C@H]3C(=O)C=C4[C@@H]5C[C@@](C)(C(=O)O)CC[C@]5(C)CC[C@@]4(C)[C@]3(C)CC[C@@H]12", "note": "[glycyrrhizin]", "values": [{"measurement": "inhibition of hepatotoxicity induced by t-BHP", "setting": "[2]", "value": "hepatotoxicity inhibition effects increased with the treatment concentration thereof"}, {"measurement": "expression of inflammation-related cytokines (TNF-α, IL-1β, IL-6)", "setting": "[5]", "value": "inhibited more strongly"}, {"measurement": "cell viability", "setting": "[6]", "value": "≥ 95", "unit": "%"}]}, {"molecule": "O=C1C[C@@H](c2ccc(O[C@@H]3O[C@H](CO)[C@@H](O)[C@H](O)[C@H]3O)cc2)Oc2cc(O)ccc21", "note": "[liquiritin]", "values": [{"measurement": "inhibition of hepatotoxicity induced by t-BHP", "setting": "[2]", "value": "hepatotoxicity inhibition effects increased with the treatment concentration thereof"}, {"measurement": "expression of iNOS and COX2 (mRNA)", "setting": "[3]", "value": "decreased the expression of iNOS and COX2 more strongly than glycyrrhizin"}, {"measurement": "cell viability", "setting": "[6]", "value": "≥ 95", "unit": "%"}]}]}
